Experimental data published in patent US20260258050A1, “IMMUNOMODULATOR” (HITGEN INC., priority 2023, published 2026).

Biological target: T1, Human IL-17A (Homo sapiens, UniProt Q16552)
T1 sequence (Q16552 20-155 limits assumed): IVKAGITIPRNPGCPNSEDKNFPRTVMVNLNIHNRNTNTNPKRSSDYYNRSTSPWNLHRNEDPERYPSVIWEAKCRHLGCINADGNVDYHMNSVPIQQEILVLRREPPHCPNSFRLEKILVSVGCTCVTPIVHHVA
Test: IL-17A enzyme-linked immunosorbent assay (competitive ELISA, IL-17A/IL-17Ra receptor-ligand binding)
Set-up: purchased Sino Biological Inc. 12047-H07B
Conditions: human IL-17A coated plate, human IL-17Ra, read-out: IC50, inhibitory activity of compounds on human IL-17A
Outline: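 Competitive ELISA with plates coated with human IL-17A at 0.2 μg/ml, blocked with 5% skim milk. Compound pre-incubated with IL-17A 10 min at 25 °C, then 16 nM IL-17Ra stock added for 30 min. Bound receptor detected by anti-Fc HRP/TMB, A450. IC50 from variable-slope fit of blank-corrected residual activity.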

| SMILES | IC50 |
| --- | --- |
| Cc1[nH]nc2c1-c1cnc(NC(=O)[C@@H](NC(=O)c3ccnn3C(C)C)C(C3CC3)C3CC3)cc1CN(Cc1ccccc1)C(=O)C2 [compound 182] | ≤ 50 nM |
| Cc1[nH]nc2c1-c1cnc(NC(=O)[C@@H](NC(=O)c3ccnn3C(C)C)C(C3CC3)C3CC3)cc1CN(CC(C)(F)F)C(=O)C2 [compound 193] | ≤ 50 nM |
| Cc1[nH]nc2c1-c1cnc(NC(=O)[C@@H](NC(=O)c3ccnn3C(C)C)C(C3CC3)C3CC3)cc1CN(C(C)C)C(=O)C2 [compound 195] | ≤ 50 nM |
| CC(=O)N1CCc2n[nH]c(C)c2-c2cnc(NC(=O)[C@@H](NC(=O)c3ccnn3C(C)C)C(C3CC3)C3CC3)cc2C1 [compound 196] | ≤ 50 nM |
| Cc1[nH]nc2c1-c1cnc(NC(=O)[C@@H](NC(=O)c3ccnn3C(C)C)C(C3CC3)C3CC3)cc1CN(C1CC1)CC2 [compound 198] | ≤ 50 nM |
| Cc1[nH]nc2c1-c1cnc(NC(=O)[C@@H](NC(=O)c3ccnn3C(C)C)C(C3CC3)C3CC3)cc1CN(C(C)C)CC2 [compound 200] | ≤ 50 nM |
| Cc1[nH]nc2c1-c1cnc(NC(=O)[C@@H](NC(=O)c3ccnn3C(C)C)C(C3CC3)C3CC3)cc1CN(C1CCC1)CC2 [compound 201] | ≤ 50 nM |
| Cc1[nH]nc2c1-c1cnc(NC(=O)[C@@H](NC(=O)c3conc3C(C)C)C(C3CC3)C3CC3)cc1CN(C1CC1)CC2 [compound 214] | ≤ 50 nM |
| Cc1[nH]nc2c1-c1cnc(NC(=O)[C@@H](NC(=O)c3conc3C3CC3)C(C3CC3)C3CC3)cc1CN(C1CC1)CC2 [compound 215] | ≤ 50 nM |
| CCc1nocc1C(=O)N[C@H](C(=O)Nc1cc2c(cn1)-c1c(n[nH]c1C)CCN(C1CC1)C2)C(C1CC1)C1CC1 [compound 216] | ≤ 50 nM |
| Cc1[nH]nc2c1-c1cc(F)c(NC(=O)[C@@H](NC(=O)c3ccnn3CCCF)C(C3CC3)C3CC3)cc1CN(C1CC1)CC2 [compound 218] | ≤ 50 nM |
| Cc1[nH]nc2c1-c1cnc(NC(=O)[C@@H](NC(=O)c3conc3C(C)C)C(C3CC3)C3CC3)cc1COCC2 [compound 234] | ≤ 50 nM |
| Cc1[nH]nc2c1-c1cnc(NC(=O)[C@@H](NC(=O)c3ccnn3CC(F)(F)F)C(C3CC3)C3CC3)cc1COCC2 [compound 236] | ≤ 50 nM |
| Cc1[nH]nc2c1-c1cnc(NC(=O)[C@@H](NC(=O)/C(F)=C\C3CC3)C(C3CC3)C3CC3)cc1COCC2 [compound 239] | ≤ 50 nM |
| CCc1nocc1C(=O)N[C@H](C(=O)Nc1cc2c(cn1)-c1c(n[nH]c1C)CCOC2)C(C1CC1)C1CC1 [compound 240] | ≤ 50 nM |
| Cc1[nH]nc2c1-c1cnc(NC(=O)[C@@H](NC(=O)c3conc3C3CC3)C(C3CC3)C3CC3)cc1COCC2 [compound 241] | ≤ 50 nM |

Further lines, results first:

| IC50 | SMILES |
| --- | --- |
| ≤ 50 nM | Cc1[nH]nc2c1-c1cnc(NC(=O)[C@@H](NC(=O)c3ccnn3C(C)C)C(C3CC3)C3CC3)cc1CN(C1CC1)C(=O)C2 [compound 191] |
| ≤ 50 nM | Cc1[nH]nc2c1-c1cnc(NC(=O)[C@@H](NC(=O)c3ccnn3C(C)C)C(C3CC3)C3CC3)cc1CN(CC(F)F)C(=O)C2 [compound 192] |
| ≤ 50 nM | Cc1[nH]nc2c1-c1cnc(NC(=O)[C@@H](NC(=O)c3ccnn3C(C)C)C(C3CC3)C3CC3)cc1CN(C1CC(F)(F)C1)C(=O)C2 [compound 194] |
| ≤ 50 nM | Cc1[nH]nc2c1-c1cnc(NC(=O)[C@@H](NC(=O)c3ccnn3C(C)C)C(C3CC3)C3CC3)cc1CN(CC(C)(F)F)CC2 [compound 199] |
| ≤ 50 nM | Cc1[nH]nc2c1-c1cnc(NC(=O)[C@@H](NC(=O)c3ccnn3C(C)C)C(C3CC3)C3CC3)cc1CN(CC(F)F)CC2 [compound 202] |
| ≤ 50 nM | CCn1nccc1C(=O)N[C@H](C(=O)Nc1cc2c(cn1)-c1c(n[nH]c1C)CCN(C1CC1)C2)C(C1CC1)C1CC1 [compound 217] |
| ≤ 50 nM | Cc1[nH]nc2c1-c1cc(F)c(NC(=O)[C@@H](NC(=O)/C(F)=C\C(C)C)C(C3CC3)C3CC3)cc1COCC2 [compound 229] |
| ≤ 50 nM | Cc1[nH]nc2c1-c1cc(F)c(NC(=O)[C@@H](NC(=O)/C(F)=C\C3CC3)C(C3CC3)C3CC3)cc1COCC2 [compound 230] |
| ≤ 50 nM | Cc1[nH]nc2c1-c1cnc(NC(=O)[C@@H](NC(=O)c3ccnn3C3CC3)C(C3CC3)C3CC3)cc1COCC2 [compound 237] |
| ≤ 50 nM | Cc1[nH]nc2c1-c1cnc(NC(=O)[C@@H](NC(=O)/C(F)=C\C(C)C)C(C3CC3)C3CC3)cc1COCC2 [compound 238] |
